Experimental data: PubChem BioAssay (NCI)
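Five compound concentrations were applied to cells in 96-well plates for 48 hours; endpoints were derived by simple linear interpolation of the resulting dose-response curve. GI50 is the concentration that inhibits growth by half. At the TGI there is no net growth.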

What was measured:
Experiment in all cases: DTP human tumour cell line panel, 48 h
MALME-3M melanoma = test system: MALME-3M melanoma
LOX IMVI melanoma = test system: LOX IMVI melanoma
OVCAR-3 ovarian = test system: OVCAR-3 ovarian
SK-OV-3 ovarian = test system: SK-OV-3 ovarian
NCI-H522 lung = test system: NCI-H522 lung
HOP-92 NSCLC = test system: HOP-92 NSCLC
UO-31 renal = test system: UO-31 renal
UACC-62 melanoma = test system: UACC-62 melanoma
KM12 colon = test system: KM12 colon
U251 CNS = test system: U251 CNS
HCC-2998 colon = test system: HCC-2998 colon
SF-268 CNS = test system: SF-268 CNS
T-47D breast = test system: T-47D breast
SN12C renal = test system: SN12C renal
A549 NSCLC = test system: A549 NSCLC
NCI-H460 lung = test system: NCI-H460 lung
IGROV1 ovarian = test system: IGROV1 ovarian
SF-539 CNS = test system: SF-539 CNS
SK-MEL-28 melanoma = test system: SK-MEL-28 melanoma
SR leukemia = test system: SR leukemia
OVCAR-4 ovarian = test system: OVCAR-4 ovarian
EKVX NSCLC = test system: EKVX NSCLC
HS 578T breast = test system: HS 578T breast
MOLT-4 leukemia = test system: MOLT-4 leukemia
SK-MEL-2 melanoma = test system: SK-MEL-2 melanoma
HT29 colon = test system: HT29 colon
HCT-116 colon = test system: HCT-116 colon
DU-145 prostate = test system: DU-145 prostate
K-562 leukemia = test system: K-562 leukemia
SNB-19 CNS = test system: SNB-19 CNS
786-0 renal = test system: 786-0 renal
BT-549 breast = test system: BT-549 breast
SF-295 CNS = test system: SF-295 CNS
TK-10 renal = test system: TK-10 renal
PC-3 prostate = test system: PC-3 prostate
UACC-257 melanoma = test system: UACC-257 melanoma
SK-MEL-5 melanoma = test system: SK-MEL-5 melanoma
A498 renal = test system: A498 renal
M14 melanoma = test system: M14 melanoma
OVCAR-5 ovarian = test system: OVCAR-5 ovarian
NCI-H23 lung = test system: NCI-H23 lung
RPMI-8226 leukemia = test system: RPMI-8226 leukemia
MCF7 breast = test system: MCF7 breast
COLO 205 colon = test system: COLO 205 colon
HL-60(TB) leukemia = test system: HL-60(TB) leukemia
HOP-62 NSCLC = test system: HOP-62 NSCLC
HCT-15 colon = test system: HCT-15 colon
OVCAR-8 ovarian = test system: OVCAR-8 ovarian
MDA-MB-435 = test system: MDA-MB-435
ACHN renal = test system: ACHN renal
SW-620 colon = test system: SW-620 colon
SNB-75 CNS = test system: SNB-75 CNS
NCI/ADR-RES ovarian = test system: NCI/ADR-RES ovarian
MDA-MB-231 breast = test system: MDA-MB-231 breast
RXF 393 renal = test system: RXF 393 renal
NCI-H226 lung = test system: NCI-H226 lung

SMILES: CN1CCN(c2nc(NCCCNc3ccnc4cc(Cl)ccc34)c3ccccc3n2)CC1
- GI50 (MALME-3M melanoma): 1.98 µM
- TGI (MALME-3M melanoma): 3.84 µM
- GI50 (LOX IMVI melanoma): 1.96 µM
- TGI (LOX IMVI melanoma): 4.2 µM
- GI50 (OVCAR-3 ovarian): 6.93 µM
- TGI (OVCAR-3 ovarian): 21.6 µM
- GI50 (SK-OV-3 ovarian): 6.46 µM
- TGI (SK-OV-3 ovarian): 22.5 µM
- GI50 (NCI-H522 lung): 3.24 µM
- TGI (NCI-H522 lung): 7.7 µM
- GI50 (HOP-92 NSCLC): 2.07 µM
- TGI (HOP-92 NSCLC): 6.43 µM
- GI50 (UO-31 renal): 2.09 µM
- TGI (UO-31 renal): 5.93 µM
- GI50 (UACC-62 melanoma): 1.95 µM
- TGI (UACC-62 melanoma): 3.86 µM
- GI50 (KM12 colon): 4.02 µM
- TGI (KM12 colon): 16.1 µM
- GI50 (U251 CNS): 3.39 µM
- TGI (U251 CNS): 10.3 µM
- GI50 (HCC-2998 colon): 3 µM
- TGI (HCC-2998 colon): 12.5 µM
- GI50 (SF-268 CNS): 4.71 µM
- TGI (SF-268 CNS): 19.2 µM
- GI50 (T-47D breast): 2.39 µM
- TGI (T-47D breast): 6.73 µM
- GI50 (SN12C renal): 4.97 µM
- TGI (SN12C renal): 18 µM
- GI50 (A549 NSCLC): 5.01 µM
- TGI (A549 NSCLC): 19.2 µM
- GI50 (NCI-H460 lung): 3.53 µM
- TGI (NCI-H460 lung): 13.4 µM
- GI50 (IGROV1 ovarian): 4.52 µM
- TGI (IGROV1 ovarian): 18.9 µM
- GI50 (SF-539 CNS): 1.74 µM
- TGI (SF-539 CNS): 3.5 µM
- GI50 (SK-MEL-28 melanoma): 2.17 µM
- TGI (SK-MEL-28 melanoma): 4.22 µM
- GI50 (SR leukemia): 1.74 µM
- TGI (SR leukemia): 6.05 µM
- GI50 (OVCAR-4 ovarian): 2.69 µM
- TGI (OVCAR-4 ovarian): 12.5 µM
- GI50 (EKVX NSCLC): 11.4 µM
- TGI (EKVX NSCLC): 25.3 µM
- GI50 (HS 578T breast): 3.35 µM
- TGI (HS 578T breast): 19 µM
- GI50 (MOLT-4 leukemia): 3.25 µM
- TGI (MOLT-4 leukemia): 15.2 µM
- GI50 (SK-MEL-2 melanoma): 3.18 µM
- TGI (SK-MEL-2 melanoma): 9.09 µM
- GI50 (HT29 colon): 3.33 µM
- TGI (HT29 colon): 9.87 µM
- GI50 (HCT-116 colon): 3.3 µM
- TGI (HCT-116 colon): 12.1 µM
- GI50 (DU-145 prostate): 6.11 µM
- TGI (DU-145 prostate): 18.4 µM
- GI50 (K-562 leukemia): 2.64 µM
- TGI (K-562 leukemia): 10.9 µM
- GI50 (SNB-19 CNS): 3.77 µM
- TGI (SNB-19 CNS): 15.3 µM
- GI50 (786-0 renal): 3.58 µM
- TGI (786-0 renal): 12.9 µM
- GI50 (BT-549 breast): 4.4 µM
- TGI (BT-549 breast): 16.7 µM
- GI50 (SF-295 CNS): 2.05 µM
- TGI (SF-295 CNS): 4.92 µM
- GI50 (TK-10 renal): 10.8 µM
- TGI (TK-10 renal): 26.2 µM
- GI50 (PC-3 prostate): 6.14 µM
- TGI (PC-3 prostate): 20.7 µM
- GI50 (UACC-257 melanoma): 2.02 µM
- TGI (UACC-257 melanoma): 3.83 µM
- GI50 (SK-MEL-5 melanoma): 1.78 µM
- TGI (SK-MEL-5 melanoma): 3.18 µM
- GI50 (A498 renal): 12.9 µM
- TGI (A498 renal): 25.6 µM
- GI50 (M14 melanoma): 1.89 µM
- TGI (M14 melanoma): 3.77 µM
- GI50 (OVCAR-5 ovarian): 4.17 µM
- TGI (OVCAR-5 ovarian): 19.1 µM
- GI50 (NCI-H23 lung): 10.6 µM
- TGI (NCI-H23 lung): 24 µM
- GI50 (RPMI-8226 leukemia): 1.8 µM
- TGI (RPMI-8226 leukemia): 7.69 µM
- GI50 (MCF7 breast): 2.37 µM
- TGI (MCF7 breast): 13.2 µM
- GI50 (COLO 205 colon): 1.86 µM
- TGI (COLO 205 colon): 4.51 µM
- GI50 (HL-60(TB) leukemia): 2.14 µM
- TGI (HL-60(TB) leukemia): 4.39 µM
- GI50 (HOP-62 NSCLC): 2.81 µM
- TGI (HOP-62 NSCLC): 11.6 µM
- GI50 (HCT-15 colon): 5.33 µM
- TGI (HCT-15 colon): 18.8 µM
- GI50 (OVCAR-8 ovarian): 5.92 µM
- TGI (OVCAR-8 ovarian): 20.7 µM
- GI50 (MDA-MB-435): 2.09 µM
- TGI (MDA-MB-435): 4.33 µM
- GI50 (ACHN renal): 3.92 µM
- TGI (ACHN renal): 13.6 µM
- GI50 (SW-620 colon): 3.23 µM
- TGI (SW-620 colon): 12.8 µM
- GI50 (SNB-75 CNS): 5.45 µM
- TGI (SNB-75 CNS): 20.7 µM
- GI50 (NCI/ADR-RES ovarian): 22 µM
- TGI (NCI/ADR-RES ovarian): 59.1 µM
- GI50 (MDA-MB-231 breast): 2.76 µM
- TGI (MDA-MB-231 breast): 8.94 µM
- GI50 (RXF 393 renal): 1.49 µM
- TGI (RXF 393 renal): 3.72 µM
- GI50 (NCI-H226 lung): 18.9 µM
- TGI (NCI-H226 lung): 41.4 µM
